Test system: swine exposed to 1.5 ATA hyperbaric oxygen for 17.5 hr
Test: Experiment 1 shallow exposure simulation: Impulse Oscillometry (IOS)
Assay type: in vivo
Conditions: 1.5 ATA O2 17.5 hr, 18 mcg nebulized pre-dive, post-dive normalized to baseline, n=7/arm
Experimental: Experiment 1 is designed to evaluate the efficacy of tiotropium bromide administered pre-dive in reducing decrements in pulmonary function due to PO2T following a 17.5 hour, 1.5 ATA hyperbaric oxygen exposure. This dive profile was selected because it was of sufficient duration to elicit persistent pulmonary function decrement in humans.
The swine were anesthetized with propofol (20 cc, I.V. target, adjusted as needed to optimize sedation), intubated and ventilated. Anesthetized swine were shaved, then ECG and EEG electrodes were placed. Animals were then paralyzed with Atracurium Besylate (50 mg, IV) for accurate pulmonary function measurements of quasi-static and dynamic compliance.
Following baseline pulmonary function measurements, the swine were randomized to receive equivalent volumes of normal saline or tiotropium bromide (18 mcg) via nebulizer. The swine were then ventilated until muscle tone was regained. […]
Next, the swine were switched to 100% oxygen breathing gas and remained at 1.5 ATA for 17.5 hr. […] When fully sedated, the swine were ventilated, paralyzed with Atracurium Besylate, and post-dive measurements of pulmonary function were recorded. During all phases of study the swine were continuously monitored for signs of seizure or distress. […]

C[N+]1(C)[C@@H]2C[C@@H](OC(=O)C(O)(c3cccs3)c3cccs3)C[C@H]1[C@@H]1O[C@@H]12 [Tiotropium, tiotropium bromide]
IOS resistance, Tiotropium treated animals vs saline controls (p=0.172): no significant differences | IOS reactance, Tiotropium treated animals vs saline controls (p=0.65): no significant differences
